Values after ≈ are worked out from the molar mass of the structure shown.
How the values were obtained:
Assay type in all cases: cell-based
[1] = system: Staphylococcus aureus MSQS; assay: MIC, standard in-vitro test, agar dilution; conditions: Staphylococcus aureus MSQS (methicillin sensitive and quinolone sensitive), 10^4 CFU/spot, 37° C., 24 hours
Description: (§1) The following results were obtained on a standard in-vitro test system The activity is described in terms of the minimum inhibitory concentration (MIC) determined by the agar-dilution technique with an inoculum size of 10^4 CFU/spot. Typically, compounds are active in the range 0.01 to 256 μg/ml.
(§2) Staphylococci were tested on agar, using an inoculum of 10^4 CFU/spot and an incubation temperature of 37° C. for 24 hours—standard test conditions for the expression of methicillin resistance.

[2] = system: Staphylococcus aureus MRQR; assay: MIC, standard in-vitro test, agar dilution; conditions: Staphylococcus aureus MRQR (methicillin resistant and quinolone resistant), 10^4 CFU/spot, 37° C., 24 hours
Description: as §1, §2

Streptococcus pneumoniae = assay: MIC, standard in-vitro test, agar with 5% horse blood; conditions: agar with 5% defibrinated horse blood, 10^4 CFU/spot, 37° C., 5% carbon dioxide, 48 hours
Description: as §1
(§3) Streptococci and enterococci were tested on agar supplemented with 5% defibrinated horse blood, an inoculum of 10^4 CFU/spot and an incubation temperature of 37° C. in an atmosphere of 5% carbon dioxide for 48 hours—blood is required for the growth of some of the test organisms. Fastidious Gram negative organisms were tested in Mueller-Hinton broth, supplemented with hemin and NAD, grown aerobically for 24 hours at 37° C., and with an innoculum of 5×10^4 CFU/well

[3] = system: Linezolid Resistant Streptococcus pneumoniae; assay: as above; conditions: agar with 5% defibrinated horse blood, 48 hours
Description: as §1, §3

Enterococcus faecium = assay: as above; conditions: agar with 5% defibrinated horse blood, 48 hours
Description: as §1, §3

Haemophilus influenzae = assay: MIC, fastidious Gram negative organisms in Mueller-Hinton broth; conditions: Mueller-Hinton broth with hemin and NAD, 24 hours, 37° C., 5×10^4 CFU/well
Description: as §1, §3

Moraxella catarrhalis = assay: as above; conditions: Mueller-Hinton broth with hemin and NAD, 24 hours, 37° C., 5×10^4 CFU/well
Description: as §1, §3

In the case of `O=C1O[C@@H](Cn2ccnn2)CN1c1ccc(-c2ccc(C3=NOC(CO)(CO)C3)cc2)c(F)c1` [Example 2, (5R)-3-{4′-(5,5-bis(Hydroxymethyl)-4,5-dihydroisoxazol-3-yl]-2-fluoro-1,1′-biphenyl-4-yl}-5-(1H-1,2,3-triazol-1-ylmethyl)-1,3-oxazolidin-2-one], the MIC [1] is reported as 0.5 µg/mL (≈ 1.07 µM), the MIC [2] is reported as 0.5 µg/mL (≈ 1.07 µM) and the MIC (Streptococcus pneumoniae) is reported as 0.13 µg/mL (≈ 0.278 µM). The MIC [3] was 1 µg/mL (≈ 2.14 µM), the MIC (Enterococcus faecium) was 0.25 µg/mL (≈ 0.535 µM) and the MIC (Haemophilus influenzae) was 4 µg/mL (≈ 8.56 µM). For the same compound, the MIC (Moraxella catarrhalis) was 0.5 µg/mL (≈ 1.07 µM).
